In BindingDB's records for doi:10.1021/cb500828m (Vanderbilt University, 2015) one finds IC50 data, which are given here for 1 compound.

This assay has as its target T1, Phospholipase D1 (Homo sapiens, UniProt Q13393).
T1 sequence (Q13393 whole entry): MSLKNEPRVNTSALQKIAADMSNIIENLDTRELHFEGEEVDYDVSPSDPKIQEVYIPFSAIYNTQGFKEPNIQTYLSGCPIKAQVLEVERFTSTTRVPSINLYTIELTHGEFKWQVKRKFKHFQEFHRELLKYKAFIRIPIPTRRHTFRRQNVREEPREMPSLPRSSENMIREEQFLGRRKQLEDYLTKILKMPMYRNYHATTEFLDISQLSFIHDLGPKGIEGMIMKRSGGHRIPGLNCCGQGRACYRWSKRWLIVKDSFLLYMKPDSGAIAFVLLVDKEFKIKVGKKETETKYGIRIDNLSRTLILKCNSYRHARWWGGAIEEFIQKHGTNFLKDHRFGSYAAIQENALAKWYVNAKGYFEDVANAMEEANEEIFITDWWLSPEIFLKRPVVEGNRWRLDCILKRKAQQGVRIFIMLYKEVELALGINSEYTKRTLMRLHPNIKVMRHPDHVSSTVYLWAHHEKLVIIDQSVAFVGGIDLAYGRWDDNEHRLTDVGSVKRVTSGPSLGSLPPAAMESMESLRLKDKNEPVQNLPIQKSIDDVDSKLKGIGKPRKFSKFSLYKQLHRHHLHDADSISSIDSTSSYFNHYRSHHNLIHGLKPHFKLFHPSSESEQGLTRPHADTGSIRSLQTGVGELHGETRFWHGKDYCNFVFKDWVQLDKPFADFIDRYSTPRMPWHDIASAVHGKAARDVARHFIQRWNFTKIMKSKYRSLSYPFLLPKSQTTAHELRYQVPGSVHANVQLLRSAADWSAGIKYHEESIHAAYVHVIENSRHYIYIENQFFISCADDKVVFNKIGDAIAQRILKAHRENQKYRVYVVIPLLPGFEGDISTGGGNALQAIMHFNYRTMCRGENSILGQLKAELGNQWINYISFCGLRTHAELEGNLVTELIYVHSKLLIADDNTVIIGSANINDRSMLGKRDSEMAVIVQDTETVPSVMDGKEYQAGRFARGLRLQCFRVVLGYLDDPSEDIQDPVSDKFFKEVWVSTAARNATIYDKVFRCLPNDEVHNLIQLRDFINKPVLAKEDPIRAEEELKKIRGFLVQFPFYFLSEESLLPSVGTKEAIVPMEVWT
The experiment in a line: In vivo Deuterated 1-Butanol PLD Assay. Here is the method:
Cells were seeded into 12-well tissue culture plates to reach 90% confluence at the time of assay. All cell types, aside from the HEK293-gfpPLD2 cells, were serum-starved 18 h prior to experiment in DMEM, 0.5% FBS, 1% AA. Cells werepretreated in the presence of test compound (50 μM to 5 nM) or DMSO (vehicle control) in DMEM for 5 min at rt. After pretreatment, media was removed, and cells were treated with DMEM + 1 μM PMA + 0.3% 1-butanol-d10, and either test compound, DMSO vehicle control, or DMEM alone for 30 min at 37 °C. HEK293-gfpPLD2 cells were treated in the presence of DMEM + 0.3% 1-butanol-d10 and either test compound or DMSO but were not stimulated with PMA. After treatment, samples were extracted, and 1,2-dihexanoyl-snglycero-3-phosphomethanol ([…]) was added as an internal standard. The lipids were isolated, the solvent was evaporated, and the resulting lipid film was resuspended in MS solvent (9:1 methanol/chloroform + 1 μL of NH4OH). Samples were

Turning to `Oc1ccc(-c2sc3cc(O)ccc3c2-c2ccc(OCCN3CCCCC3)cc2)cc1` [Desketoraloxifene (10)], the IC50 was 6.1 µM.
